Our source for the T/C values is PubChem BioAssay AID212 (DTP/NCI, 2004).

Where “and” joins values, the source holds several entries; their conditions need not be identical. Identical values can stand only once. Inconclusive results are not listed.

The subject of this experiment is BDF1 mice, colon carcinoma 38 sc, T/C %. The experiment can be described thus: NCI In Vivo Anticancer Drug Screen. Data for tumor model Colon Carcinoma 38 (subcutaneous) in B6D2F1 (BDF1) mice. As to conditions: endpoint: median tumor weight (est.), higher = larger tumour. The essentials:
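Transplantable tumor in mice; compound-treated vs vehicle-dosed controls. Measured survival or tumor size; value = T ÷ C.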

Setting [1] is: dose: 12.5 mg/kg/injection, schedule: Q07DX002 (ip), vehicle: Klucel (hydroxypropylcellulose) (HPC).
Where [2] appears, read: dose: 25.0 mg/kg/injection, schedule: Q07DX002 (ip), vehicle: Klucel (hydroxypropylcellulose) (HPC).
Setting [3] is: dose: 50.0 mg/kg/injection, schedule: Q07DX002 (ip), vehicle: Klucel (hydroxypropylcellulose) (HPC).
Where [4] appears, read: dose: 100.0 mg/kg/injection, schedule: Q07DX002 (ip), vehicle: Klucel (hydroxypropylcellulose) (HPC).
Where [5] appears, read: dose: 400.0 mg/kg/injection, schedule: Q07DX002 (ip), vehicle: Klucel (hydroxypropylcellulose) (HPC).
[6] abbreviates: dose: 12.5 mg/kg/injection, schedule: Q07DX002 (ip), vehicle: saline.
Where [7] appears, read: dose: 25.0 mg/kg/injection, schedule: Q07DX002 (ip), vehicle: saline.
Setting [8] is: dose: 50.0 mg/kg/injection, schedule: Q07DX002 (ip), vehicle: saline.
Where [9] appears, read: dose: 100.0 mg/kg/injection, schedule: Q07DX002 (ip), vehicle: saline.
The mark [10] stands for this setting: dose: 400.0 mg/kg/injection, schedule: Q07DX002 (ip), vehicle: saline.
Setting [11] is: dose: 12.5 mg/kg/injection, schedule: Q07DX002 (ip), vehicle: saline with Tween-80.
[12] abbreviates: dose: 25.0 mg/kg/injection, schedule: Q07DX002 (ip), vehicle: saline with Tween-80.
[13] abbreviates: dose: 100.0 mg/kg/injection, schedule: Q07DX002 (ip), vehicle: saline with Tween-80.
[14] abbreviates: dose: 200.0 mg/kg/injection, schedule: Q07DX002 (ip), vehicle: saline with Tween-80.

Turning to `c1ccc([P+](c2ccccc2)(c2ccccc2)c2ccccc2)cc1`, the T/C reads like this: (dose: 0.75 mg/kg/injection, schedule: Q07DX002 (ip), vehicle: saline) 91 % of control; (dose: 0.75 mg/kg/injection, schedule: Q07DX003 (ip), vehicle: saline) 84 % of control; (dose: 1.5 mg/kg/injection, schedule: Q07DX002 (ip), vehicle: saline) 95 % of control; (dose: 1.5 mg/kg/injection, schedule: Q07DX003 (ip), vehicle: saline) 83 % of control; (dose: 3.0 mg/kg/injection, schedule: Q07DX002 (ip), vehicle: saline) 77 % of control; (dose: 3.0 mg/kg/injection, schedule: Q07DX003 (ip), vehicle: saline) 69 % of control. The T/C was 112 % of control (dose: 6.0 mg/kg/injection, schedule: Q07DX002 (ip), vehicle: saline) and 66 % of control (dose: 6.0 mg/kg/injection, schedule: Q07DX003 (ip), vehicle: saline).
For the compound `CN(C)c1ccc2c(N(C)C)cc(N(C)C)nc2c1`, the T/C (dose: 3.12 mg/kg/injection, schedule: Q07DX002 (ip), vehicle: Klucel (hydroxypropylcellulose) (HPC)) was 77 % of control and 101 % of control; the T/C under setting [1] was 114 % of control and 107 % of control; the T/C under setting [2] is 72 % of control.
`Cn1c(N)c(C(=O)/C=C/c2ccccc2)c(=O)n(C)c1=O`: the T/C by setting is: under setting [2], 114 % of control; under setting [3], 112 % of control; under setting [4], 109 % of control; under setting [5], 123 % of control.
For the compound `CCCCCC(O)C1C(=O)OC(C)C(O)/C=C/C=C/C=C/C=C\C=C(\C)C(O)CC(O)CC(O)CC(O)CC(O)CC(O)CC1O` (centres undefined), the T/C was 105 % of control (dose: 2.5 mg/kg/injection, schedule: Q07DX002 (ip), vehicle: saline); 64 % of control (dose: 5.0 mg/kg/injection, schedule: Q07DX002 (ip), vehicle: saline); 71 % of control (dose: 20.0 mg/kg/injection, schedule: Q07DX002 (ip), vehicle: saline).
Take `Cn1cnc([N+](=O)[O-])c1SCC(=O)O`: the T/C under setting [6] is 65 % of control; the T/C under setting [7] is 62 % of control; the T/C under setting [8] is 67 % of control; the T/C under setting [9] was 99 % of control; the T/C (dose: 112.5 mg/kg/injection, schedule: Q07DX002 (ip), vehicle: saline) was 111 % of control; the T/C (dose: 200.0 mg/kg/injection, schedule: Q07DX002 (ip), vehicle: saline) was 94 % of control. The T/C by setting is: (dose: 225.0 mg/kg/injection, schedule: Q07DX002 (ip), vehicle: saline) 85 % of control; under setting [10], 100 % of control; (dose: 450.0 mg/kg/injection, schedule: Q07DX002 (ip), vehicle: saline) 163 % of control; (dose: 900.0 mg/kg/injection, schedule: Q07DX002 (ip), vehicle: saline) 59 % of control; (dose: 1800.0 mg/kg/injection, schedule: Q07DX002 (ip), vehicle: saline) 101 % of control.
With `COc1ccc(/C=C/C(=O)c2cc(C(=O)O)c(OC)cc2OC)cc1OC`, the T/C under setting [6] was 94 % of control and 103 % of control; the T/C under setting [7] is 88 % of control and 94 % of control; the T/C under setting [8] was 114 % of control and 124 % of control; the T/C under setting [9] was 88 % of control and 96 % of control; the T/C under setting [10] is 93 % of control and 103 % of control.
Regarding `O=c1ssc(=Nc2ccccc2)n1-c1ccccc1`, the T/C under setting [4] is 97 % of control and 102 % of control.
With `O=C1c2cccc3cc([N+](=O)[O-])cc(c23)C(=O)N1CCN1CCCC1`, the T/C runs as follows: (dose: 3.13 mg/kg/injection, schedule: Q07DX002 (ip), vehicle: saline with Tween-80) 107 % of control; (dose: 6.25 mg/kg/injection, schedule: Q07DX002 (ip), vehicle: saline with Tween-80) 71 % of control; under setting [11], 84 % of control; under setting [12], 67 % of control.
Turning to `O=C1C=C(C2OC(CO)C(O)C2O)C(=O)N1` (centres undefined), the T/C is 66 % of control (dose: 1.56 mg/kg/injection, schedule: Q07DX002 (ip), vehicle: saline); 56 % of control (dose: 3.12 mg/kg/injection, schedule: Q07DX002 (ip), vehicle: saline); 70 % of control (dose: 6.25 mg/kg/injection, schedule: Q07DX002 (ip), vehicle: saline); 113 % of control under setting [6]; 83 % of control under setting [7].
With `O=C1C=C[C@H](O)[C@@]2(CO)O[C@@H]12`, the T/C (dose: 0.62 mg/kg/injection, schedule: Q07DX002 (ip), vehicle: saline with Tween-80) is 104 % of control; the T/C (dose: 1.25 mg/kg/injection, schedule: Q07DX002 (ip), vehicle: saline with Tween-80) is 116 % of control; the T/C (dose: 2.5 mg/kg/injection, schedule: Q07DX002 (ip), vehicle: saline with Tween-80) was 69 % of control; the T/C (dose: 5.0 mg/kg/injection, schedule: Q07DX002 (ip), vehicle: saline with Tween-80) is 79 % of control; the T/C (dose: 10.0 mg/kg/injection, schedule: Q07DX002 (ip), vehicle: saline with Tween-80) was 97 % of control.
In the case of `CCCC[C@H]1C(=O)O[C@H](C)[C@H](NC(=O)c2cccc(NC=O)c2O)C(=O)O[C@@H](C)[C@@H]1OC(=O)CC(C)C`, the T/C runs as follows: (dose: 0.5 mg/kg/injection, schedule: Q07DX002 (ip), vehicle: Klucel (hydroxypropylcellulose) (HPC)) 177 % of control; (dose: 1.0 mg/kg/injection, schedule: Q07DX002 (ip), vehicle: Klucel (hydroxypropylcellulose) (HPC)) 224 % of control.
Turning to `Cc1ccc(Cl)c2ccccc12`, the T/C is 96 % of control and 102 % of control under setting [11]; 92 % of control under setting [12]; 89 % of control and 96 % of control under setting [13]; 88 % of control and 96 % of control under setting [14]; 87 % of control (dose: 400.0 mg/kg/injection, schedule: Q07DX002 (ip), vehicle: saline with Tween-80).
As for `COc1ccc(-c2cc(=O)c3cccc(CC(=O)O)c3o2)cc1`, the T/C is 84 % of control under setting [13] and 113 % of control under setting [14].
On to `NC(CSC(c1ccccc1)(c1ccccc1)c1ccccc1)C(=O)O` (centres undefined), for which the T/C is 83 % of control (dose: 8.0 mg/kg/injection, schedule: Q07DX003 (ip), vehicle: Klucel (hydroxypropylcellulose) (HPC)); 78 % of control (dose: 8.0 mg/kg/injection, schedule: Q07DX003 (ip), vehicle: saline with Tween-80); 53 % of control (dose: 16.0 mg/kg/injection, schedule: Q07DX003 (ip), vehicle: Klucel (hydroxypropylcellulose) (HPC)); 61 % of control (dose: 16.0 mg/kg/injection, schedule: Q07DX003 (ip), vehicle: saline with Tween-80); 64 % of control (dose: 32.0 mg/kg/injection, schedule: Q07DX003 (ip), vehicle: Klucel (hydroxypropylcellulose) (HPC)); 57 % of control (dose: 32.0 mg/kg/injection, schedule: Q07DX003 (ip), vehicle: saline with Tween-80). For the same compound, the T/C runs as follows: (dose: 64.0 mg/kg/injection, schedule: Q07DX003 (ip), vehicle: Klucel (hydroxypropylcellulose) (HPC)) 46 % of control; (dose: 64.0 mg/kg/injection, schedule: Q07DX003 (ip), vehicle: saline with Tween-80) 75 % of control; (dose: 128.0 mg/kg/injection, schedule: Q07DX003 (ip), vehicle: Klucel (hydroxypropylcellulose) (HPC)) 34 % of control; (dose: 128.0 mg/kg/injection, schedule: Q07DX003 (ip), vehicle: saline with Tween-80) 9 % of control; (dose: 256.0 mg/kg/injection, schedule: Q07DX003 (ip), vehicle: Klucel (hydroxypropylcellulose) (HPC)) 17 % of control.
Take `COc1c(CNC(=O)CCl)cc2[nH]c(C)cc2c1CNC(=O)CCl`: the T/C was 101 % of control under setting [1]; 98 % of control under setting [3]; 93 % of control under setting [4]; 83 % of control (dose: 200.0 mg/kg/injection, schedule: Q07DX002 (ip), vehicle: Klucel (hydroxypropylcellulose) (HPC)); 111 % of control under setting [5].
